{
  "source": "patent US20250263733A1",
  "about": "“TARGETED GENE INTEGRATION IN PLANTS” (LIMAGRAIN EUROPE, priority 2021, published 2025)",
  "system": "Ubi7DL gene",
  "experiment": "NGS sequencing of transformed plantlets for mutations at the gRNA target site around the STOP codon of Ubi7DL",
  "set-up": "species or system wheat var. Fielder",
  "conditions": "59 of 97 events; multiplex G1, G2, G3 guides with Cas9; all mutations generated with G3",
  "description": "The strategy for GT at Ubi7DL is outlined in FIG. 1 and is based on the method of in planta GT (Fauser et al. 2012). A Cas9 gRNA (G3 SEQ ID NO: 8) that efficiently makes a DNA double strand break (DSB) around the STOP codon of the Ubi7DL gene was first identified by Agrobacterium-mediated transformation into wheat var. Fielder with a binary plasmid containing a TaU6-tRNA multiplex guide (SEQ ID NO: 10) expressing 3 guides G1 (SEQ ID NO: 6), G2 (SEQ ID NO: 7) and G3 (SEQ ID NO: 8) under control of promoter TaU6 (SEQ ID NO: 9), together with ZmUbi (SEQ ID NO: 11)-Cas9 (SEQ ID NO: 13)-nos terminator (SEQ ID NO: 12) and pActin-Bar-nos cassettes. These 3 target sites are around the STOP codon of Ubi7DL. Fielder wheat cultivar was transformed with these Agrobacterium strains essentially as described by WO2000/063398.",
  "data": [
    {"substance": "G3: Cas9 gRNA (SEQ ID NO: 8) making a double strand break around the STOP codon of Ubi7DL (guide CAGGAGCTTACTGGCCACCA; listed as DNA, chemistry not given here; listed as Triticum aestivum) [Line G3]", "values": [
      {"measurement": "independent transformation events with mutations at the target site", "value": 61, "unit": "%"}
    ]}
  ]
}
